Data reported in paper PMC5386260, “Acute development of cortical porosity and endosteal naïve bone formation from the daily but not weekly short-term administration of PTH in rabbit” (PLoS ONE, 2017).

Experiments:
[1] = system: endosteal surface of rabbit tibiae; assay: DIC bright field and deconvolution fluorescence imaging of tibia sections; type: in vivo; conditions: daily administration (D20 and D40), 4 weeks
Experimental: Calcein (Dojindo Laboratories, Kumamoto, Japan) was subcutaneously injected into each animal at a dose of 10 mg/kg body weight on days 13 and 5 before sacrifice for bone double labeling (1-7-1-3). After the dosing period, the animals were euthanized by exsanguination under anesthesia using thiopental. The left and right tibiae were collected for a micro-CT analysis and histomorphometry, respectively. The kidneys, thyroid and parathyroid of all animals were collected and fixed in 10% neutral buffered formalin for a histopathological examination. The left tibiae were packed in plastic bags and stored at -30°C until use in a micro-CT analysis and mechanical testing. […]
Calcein-labeled undecalcified bone sections were subjected to imaging acquisition using a microscopy system, ECLIPSE Ni (Nikon, Tokyo, Japan) equipped with differential interference contrast microscopy (DIC) and objectives (Nikon), as follows: Plan Apo λ 10x (numerical aperture [N.A.] = 0.45), Plan Apo λ 20x (N.A. = 0.75), and Plan Apo λ 40x (N.A. = 0.95). The fluorescence signals were obtained using filter sets, GFP-B (excitation: 460–500 nm, DM: 505 nm, emission: 510–560 nm; Nikon) for calcein, and TxRed (excitation: 540–580 nm, DM: 595 nm, emission: 600–660 nm; Nikon) for auto-fluorescence derived from soft tissue. […] The fluorescence and DIC images were sequentially acquired, with a pixel size of 0.64 μm. […]

[2] = Plasma TPTD concentration and pharmacokinetics (Rat PTH IRMA Kit, non-compartmental model); type: in vivo, rabbit
Text: Seventeen female New Zealand White rabbits (Kbl:NZW) were purchased from Kitayama Labs (Nagano, Japan) and were allowed to acclimatize with free access to water and food for 6 days before use. Throughout the experimental study, the animals were housed individually under a 12-h light/dark cycle with free access to water, but their food intake was restricted to 120g /day (LRC4, standard diet for rabbits; Oriental Yeast, Tokyo, Japan). The animals at 6 months of age were divided into 5 groups and were subcutaneously injected with 20 or 40 μg/kg of TPTD once-daily (D20 group [n = 3] and D40 group [n = 3], 140 or 280 μg/kg of TPTD once-weekly (W140 group [n = 3] and W280 group [n = 4]) for four weeks (Table 1). For the high-dose administration of TPTD, the dosage in once-daily treatment was set at 40 μg/kg/day based on a previous study, while the dosage of once-weekly TPTD treatment was set at 280 μg/kg/week; thus, the cumulative dose of TPTD each week was the same with the two treatment frequencies. In the W140 and W280 groups, saline was administered every day, except for the days on which TPTD was administered. Saline injections were administered to control animals (C group, n = 4) once daily and to each group as a vehicle.
[…] The samples were centrifuged at 1600 x g, at 4°C for 10 minutes and plasma samples were collected in order to measure the concentration of TPTD. […]
Teriparatide acetate was synthesized at Asahi Kasei Pharma Corporation (Tokyo, Japan) and was used as a standard substance. The teriparatide acetate concentration in the rabbit plasma was quantified using a Rat PTH IRMA Kit (Immutopics, Inc., San Clemente, CA) according to the manufacturer’s instructions. The pharmacokinetic parameters were calculated using a non-compartmental model (Phoenix WinNonlin; Pharsight, Mountain View, CA).

- time for plasma TPTD levels to return to the basal levels ([2]; all of the dosage regimens): ≤ 3 h
- plasma TPTD concentration relative to Cmax by 2h ([2]; all regimens (D20, D40, W140, W280), 2h post-dose): less than 40 % of Cmax
- level at 5 min ([2]; female, New Zealand White (Kbl:NZW), rabbit, plasma, sc, 20 ug/kg, Day 1, 5 min, D20 (20 μg/kg sc once-daily), n=3, IRMA, mean): 7.14 ng/mL
- level at 0.25 h ([2]; female, New Zealand White (Kbl:NZW), rabbit, plasma, sc, 20 ug/kg, Day 1, 15 min, D20 (20 μg/kg sc once-daily), n=3, IRMA, mean): 14.9 ng/mL
- level at 0.5 h ([2]; female, New Zealand White (Kbl:NZW), rabbit, plasma, sc, 20 ug/kg, Day 1, 30 min, D20 (20 μg/kg sc once-daily), n=3, IRMA, mean): 19.8 ng/mL
- level at 1 h ([2]; female, New Zealand White (Kbl:NZW), rabbit, plasma, sc, 20 ug/kg, Day 1, 1 hour, D20 (20 μg/kg sc once-daily), n=3, IRMA, mean): 11.8 ng/mL
- level at 2 h ([2]; female, New Zealand White (Kbl:NZW), rabbit, plasma, sc, 20 ug/kg, Day 1, 2 hour, D20 (20 μg/kg sc once-daily), n=3, IRMA, mean): 1.77 ng/mL
- level at 5 min ([2]; female, New Zealand White (Kbl:NZW), rabbit, plasma, sc, 20 ug/kg, Day 22, 5 min, D20 (20 μg/kg sc once-daily), n=3, IRMA, mean): 7.06 ng/mL
- level at 0.25 h ([2]; female, New Zealand White (Kbl:NZW), rabbit, plasma, sc, 20 ug/kg, Day 22, 15 min, D20 (20 μg/kg sc once-daily), n=3, IRMA, mean): 17 ng/mL
- level at 0.5 h ([2]; female, New Zealand White (Kbl:NZW), rabbit, plasma, sc, 20 ug/kg, Day 22, 30 min, D20 (20 μg/kg sc once-daily), n=3, IRMA, mean): 24.6 ng/mL
- level at 1 h ([2]; female, New Zealand White (Kbl:NZW), rabbit, plasma, sc, 20 ug/kg, Day 22, 1 hour, D20 (20 μg/kg sc once-daily), n=3, IRMA, mean): 20.5 ng/mL
- level at 2 h ([2]; female, New Zealand White (Kbl:NZW), rabbit, plasma, sc, 20 ug/kg, Day 22, 2 hour, D20 (20 μg/kg sc once-daily), n=3, IRMA, mean): 3.8 ng/mL
- level at 24 h ([2]; female, New Zealand White (Kbl:NZW), rabbit, plasma, sc, 20 ug/kg, Day 22, 24 hour, D20 (20 μg/kg sc once-daily), n=3, IRMA, mean): 0.13 ng/mL
- level at 5 min ([2]; female, New Zealand White (Kbl:NZW), rabbit, plasma, sc, 40 ug/kg, Day 1, 5 min, D40 (40 μg/kg sc once-daily), n=3, IRMA, mean): 9.83 ng/mL
- level at 0.25 h ([2]; female, New Zealand White (Kbl:NZW), rabbit, plasma, sc, 40 ug/kg, Day 1, 15 min, D40 (40 μg/kg sc once-daily), n=3, IRMA, mean): 23.6 ng/mL
- level at 0.5 h ([2]; female, New Zealand White (Kbl:NZW), rabbit, plasma, sc, 40 ug/kg, Day 1, 30 min, D40 (40 μg/kg sc once-daily), n=3, IRMA, mean): 34.3 ng/mL
- level at 1 h ([2]; female, New Zealand White (Kbl:NZW), rabbit, plasma, sc, 40 ug/kg, Day 1, 1 hour, D40 (40 μg/kg sc once-daily), n=3, IRMA, mean): 29.9 ng/mL
- level at 2 h ([2]; female, New Zealand White (Kbl:NZW), rabbit, plasma, sc, 40 ug/kg, Day 1, 2 hour, D40 (40 μg/kg sc once-daily), n=3, IRMA, mean): 10.6 ng/mL
- level at 5 min ([2]; female, New Zealand White (Kbl:NZW), rabbit, plasma, sc, 40 ug/kg, Day 22, 5 min, D40 (40 μg/kg sc once-daily), n=3, IRMA, mean): 10.3 ng/mL
- level at 0.25 h ([2]; female, New Zealand White (Kbl:NZW), rabbit, plasma, sc, 40 ug/kg, Day 22, 15 min, D40 (40 μg/kg sc once-daily), n=3, IRMA, mean): 32.7 ng/mL
- level at 0.5 h ([2]; female, New Zealand White (Kbl:NZW), rabbit, plasma, sc, 40 ug/kg, Day 22, 30 min, D40 (40 μg/kg sc once-daily), n=3, IRMA, mean): 54 ng/mL
- level at 1 h ([2]; female, New Zealand White (Kbl:NZW), rabbit, plasma, sc, 40 ug/kg, Day 22, 1 hour, D40 (40 μg/kg sc once-daily), n=3, IRMA, mean): 49.2 ng/mL
- level at 2 h ([2]; female, New Zealand White (Kbl:NZW), rabbit, plasma, sc, 40 ug/kg, Day 22, 2 hour, D40 (40 μg/kg sc once-daily), n=3, IRMA, mean): 14 ng/mL
- level at 5 min ([2]; female, New Zealand White (Kbl:NZW), rabbit, plasma, sc, 140 ug/kg, Day 1, 5 min, W140 (140 μg/kg sc once-weekly), n=3, IRMA, mean): 38 ng/mL
- level at 0.25 h ([2]; female, New Zealand White (Kbl:NZW), rabbit, plasma, sc, 140 ug/kg, Day 1, 15 min, W140 (140 μg/kg sc once-weekly), n=3, IRMA, mean): 85.4 ng/mL
- level at 0.5 h ([2]; female, New Zealand White (Kbl:NZW), rabbit, plasma, sc, 140 ug/kg, Day 1, 30 min, W140 (140 μg/kg sc once-weekly), n=3, IRMA, mean): 132 ng/mL
- level at 1 h ([2]; female, New Zealand White (Kbl:NZW), rabbit, plasma, sc, 140 ug/kg, Day 1, 1 hour, W140 (140 μg/kg sc once-weekly), n=3, IRMA, mean): 121 ng/mL
- level at 2 h ([2]; female, New Zealand White (Kbl:NZW), rabbit, plasma, sc, 140 ug/kg, Day 1, 2 hour, W140 (140 μg/kg sc once-weekly), n=3, IRMA, mean): 50.4 ng/mL
- level at 5 min ([2]; female, New Zealand White (Kbl:NZW), rabbit, plasma, sc, 140 ug/kg, Day 22, 5 min, W140 (140 μg/kg sc once-weekly), n=3, IRMA, mean): 33.5 ng/mL
- level at 0.25 h ([2]; female, New Zealand White (Kbl:NZW), rabbit, plasma, sc, 140 ug/kg, Day 22, 15 min, W140 (140 μg/kg sc once-weekly), n=3, IRMA, mean): 124 ng/mL
- level at 0.5 h ([2]; female, New Zealand White (Kbl:NZW), rabbit, plasma, sc, 140 ug/kg, Day 22, 30 min, W140 (140 μg/kg sc once-weekly), n=3, IRMA, mean): 202 ng/mL
Structure (SMILES): CC[C@H](C)[C@H](NC(=O)[C@H](CCC(=O)O)NC(=O)[C@H](CO)NC(=O)[C@@H](NC(=O)[C@@H](N)CO)C(C)C)C(=O)N[C@@H](CCC(N)=O)C(=O)N[C@@H](CC(C)C)C(=O)N[C@@H](CCSC)C(=O)N[C@@H](Cc1cnc[nH]1)C(=O)N[C@@H](CC(N)=O)C(=O)N[C@@H](CC(C)C)C(=O)NCC(=O)N[C@@H](CCCCN)C(=O)N[C@@H](Cc1cnc[nH]1)C(=O)N[C@@H](CC(C)C)C(=O)N[C@@H](CC(N)=O)C(=O)N[C@@H](CO)C(=O)N[C@@H](CCSC)C(=O)N[C@@H](CCC(=O)O)C(=O)N[C@@H](CCCN=C(N)N)C(=O)N[C@H](C(=O)N[C@@H](CCC(=O)O)C(=O)N[C@@H](Cc1c[nH]c2ccccc12)C(=O)N[C@@H](CC(C)C)C(=O)N[C@@H](CCCN=C(N)N)C(=O)N[C@@H](CCCCN)C(=O)N[C@@H](CCCCN)C(=O)N[C@@H](CC(C)C)C(=O)N[C@@H](CCC(N)=O)C(=O)N[C@@H](CC(=O)O)C(=O)N[C@H](C(=O)N[C@@H](Cc1cnc[nH]1)C(=O)N[C@@H](CC(N)=O)C(=O)N[C@@H](Cc1ccccc1)C(=O)O)C(C)C)C(C)C [TPTD, Teriparatide]
- microscopic findings at the endosteal surface [1]: development of bone marrow fibrosis and poorly mineralized and disorganized bone formation
